Assay results as given in patent US8415342B2, “Besifloxacin ophthalmic composition for the treatment or control of infection” (Bausch & Lomb Incorporated, priority 2008, dated 2013).
Converted amounts (≈) assume the structure as drawn. Like-named read-outs stand apart in the source and are kept apart here.

Tests used:
Type in all cases: cell-based
Staphylococcus aureus = assay: MIC, CLSI broth microdilution, clinical isolates; conditions: for MIC50 / MIC90: Staphylococcus aureus
[1] = test system: Staphylococcus epidermidis; assay: MIC, CLSI broth microdilution, clinical isolates; conditions: for MIC50: Staphylococcus epidermidis
[2] = test system: Staphylococcus lugdunensis; assay: MIC, CLSI broth microdilution, clinical isolates; conditions: Staphylococcus lugdunensis (N = 15)
[3] = test system: Staphylococcus saprophyticus; assay: MIC, CLSI broth microdilution, clinical isolates; conditions: Staphylococcus saprophyticus (N = 101)
[4] = test system: Staphylococcus haemolyticus; assay: MIC, CLSI broth microdilution, clinical isolates; conditions: Staphylococcus haemolyticus (N = 101)
Staphylococcus warneri = assay: MIC, CLSI broth microdilution, clinical isolates; conditions: Staphylococcus warneri (N = 50)
Staphylococcus hominis = assay: MIC, CLSI broth microdilution, clinical isolates; conditions: Staphylococcus hominis (N = 50)
Streptococcus agalactiae = assay: MIC, CLSI broth microdilution, clinical isolates; conditions: Streptococcus agalactiae (N = 100)
Streptococcus pneumoniae = assay: MIC, CLSI broth microdilution, clinical isolates
Streptococcus pyogenes = assay: MIC, CLSI broth microdilution, clinical isolates; conditions: Streptococcus pyogenes (N = 101)
[5] = test system: Lancefield group C, F, G streptococci; assay: MIC, CLSI broth microdilution, clinical isolates; conditions: G streptococci (N = 50)
Viridans streptococci = assay: MIC, CLSI broth microdilution, clinical isolates; conditions: Viridans streptococci (N = 156)
Citrobacter koseri = assay: MIC, CLSI broth microdilution, clinical isolates; conditions: Citrobacter koseri (N = 100)
Klebsiella oxytoca = assay: MIC, CLSI broth microdilution, clinical isolates; conditions: Klebsiella oxytoca (N = 50)
Haemophilus influenzae = assay: MIC, CLSI broth microdilution, clinical isolates; conditions: for MIC50 / MIC90: Haemophilus influenzae
Legionella pneumophila = assay: microbe, parasite or virus in culture
Moraxella catarrhalis = assay: MIC, CLSI broth microdilution, clinical isolates; conditions: Moraxella catarrhalis (N = 101)
Morganella morganii = assay: MIC, CLSI broth microdilution, clinical isolates; conditions: Morganella morganii (N = 51)
S. aureus = assay: MIC of clinical trial isolates, Studies 373, 433, 434; conditions: Staphylococcus aureus
S. epidermidis = assay: as above; conditions: Staphylococcus epidermidis, read-out: MIC90
[6] = Staphylococcus aureus (CNS, N = 16)
[7] = Staphylococcus aureus (CS, N = 14)
[8] = Staphylococcus aureus (all phenotypes, N = 30)
[9] = MRSA, Staphylococcus aureus (MRSA, N = 11)
[10] = MSSA, Staphylococcus aureus (MSSA, N = 19)
[11] = Staphylococcus epidermidis (CNS, N = 6)
[12] = Staphylococcus epidermidis (CS, N = 9)
[13] = Staphylococcus epidermidis (MSSE, N = 6)
[14] = Staphylococcus epidermidis (all phenotypes, N = 15)
[15] = Streptococcus pneumoniae (PSSP, N = 31)
[16] = Haemophilus influenzae (all phenotypes, N = 40)
[17] = Haemophilus influenzae (bla negative, N = 24)
[18] = Haemophilus influenzae (bla positive, N = 16)

With `CC[C@H]1OC(=O)[C@H](C)[C@@H](O[C@H]2C[C@@](C)(OC)[C@@H](O)[C@H](C)O2)[C@H](C)[C@@H](O[C@@H]2O[C@H](C)C[C@H](N(C)C)[C@H]2O)[C@](C)(O)C[C@@H](C)CN(C)[C@H](C)[C@@H](O)[C@]1(C)O` [Azithromycin] the “% S” value (Staphylococcus aureus; [6]) was 43.8%, the “% S” value (Staphylococcus aureus; [7]) was 64.3% and the “% S” value (Staphylococcus aureus; Staphylococcus aureus (MRSA, N = 11)) was 9.1%. The “% S” value (Staphylococcus aureus; Staphylococcus aureus (MSSA, N = 19)) was 78.9%, the “% S” value (Staphylococcus aureus; [8]) was 53.3% and the MIC50 (Staphylococcus aureus; [9]) was over 8 µg/mL. It also gave an MIC90 (Staphylococcus aureus; [9]) of over 8 µg/mL, an MIC50 (Staphylococcus aureus; [10]) of 1 µg/mL (≈ 1.34 µM) and an MIC90 (Staphylococcus aureus; [10]) of over 8 µg/mL. It also gave an MIC50 (Staphylococcus aureus; [6]) of over 8 µg/mL, an MIC90 (Staphylococcus aureus; [6]) of over 8 µg/mL and an MIC50 (Staphylococcus aureus; [7]) of 1 µg/mL (≈ 1.34 µM). For the same compound, the MIC90 (Staphylococcus aureus; [7]) was over 8 µg/mL, the MIC50 (Staphylococcus aureus; [8]) was 1 µg/mL (≈ 1.34 µM) and the MIC90 (Staphylococcus aureus; [8]) was over 8 µg/mL. For the same compound, the “% S” value [1, 11] was 16.7%, the “% S” value [1, 12] was 33.3% and the “% S” value ([1]; Staphylococcus epidermidis (MRSE, N = 9)) was 0.0%. For the same compound, the “% S” value [1, 13] was 66.7%, the “% S” value [1, 14] was 26.7% and the MIC90 [1, 14] was over 8 µg/mL. It also gave an MIC50 ([1]; MRSE, Staphylococcus epidermidis (MRSE, N = 9)) of over 8 µg/mL, an MIC50 [1, 11] of over 8 µg/mL and an MIC50 [1, 12] of over 8 µg/mL. For the same compound, the MIC50 [1, 13] was 0.5 µg/mL (≈ 0.668 µM), the MIC50 [1, 14] was over 8 µg/mL and the “% S” value [2] was 46.7%. For the same compound, the MIC50 [2] was over 8 µg/mL, the MIC90 [2] was over 8 µg/mL and the “% S” value [3] was 54.5%. For the same compound, the MIC50 [3] was 1 µg/mL (≈ 1.34 µM), the MIC90 [3] was over 8 µg/mL and the “% S” value [4] was 26.7%. For the same compound, the MIC50 [4] was over 8 µg/mL, the MIC90 [4] was over 8 µg/mL and the “% S” value (Staphylococcus warneri) was 34.0%. The MIC50 (Staphylococcus warneri) was over 8 µg/mL, the MIC90 (Staphylococcus warneri) was over 8 µg/mL and the “% S” value (Staphylococcus hominis) was 16.0%. For the same compound, the MIC50 (Staphylococcus hominis) was over 8 µg/mL, the MIC90 (Staphylococcus hominis) was over 8 µg/mL and the “% S” value (Streptococcus agalactiae) was 73.0%. The MIC50 (Streptococcus agalactiae; read-out: MIC50) was 0.06 µg/mL (≈ 0.0801 µM), the MIC90 (Streptococcus agalactiae; read-out: MIC90) was over 8 µg/mL and the “% S” value (Streptococcus pneumoniae; Streptococcus pneumoniae (PISP, N = 2)) was 0.0%. The “% S” value (Streptococcus pneumoniae; Streptococcus pneumoniae (PRSP, N = 2)) was 50.0%, the “% S” value (Streptococcus pneumoniae; [15]) was 67.7% and the MIC50 (Streptococcus pneumoniae; [15]) was 0.06 µg/mL (≈ 0.0801 µM). The MIC90 (Streptococcus pneumoniae; [15]) was over 8 µg/mL, the “% S” value (Streptococcus pneumoniae; Streptococcus pneumoniae (all phenotypes, N = 35)) was 62.9% and the MIC50 (Streptococcus pneumoniae; Streptococcus pneumoniae (all phenotypes, N = 35), read-out: MIC50) was 0.06 µg/mL (≈ 0.0801 µM). For the same compound, the MIC90 (Streptococcus pneumoniae; Streptococcus pneumoniae (all phenotypes, N = 35), read-out: MIC90) was over 8 µg/mL, the “% S” value (Streptococcus pyogenes) was 85.1% and the MIC50 (Streptococcus pyogenes; read-out: MIC50) was 0.06 µg/mL (≈ 0.0801 µM). For the same compound, the MIC90 (Streptococcus pyogenes; read-out: MIC90) was 8 µg/mL (≈ 10.7 µM), the “% S” value [5] was 74.0% and the MIC50 ([5]; read-out: MIC50) was 0.06 µg/mL (≈ 0.0801 µM). For the same compound, the MIC90 ([5]; read-out: MIC90) was over 8 µg/mL, the “% S” value (Viridans streptococci) was 53.2% and the MIC50 (Viridans streptococci; read-out: MIC50) was 0.06 µg/mL (≈ 0.0801 µM). It also gave an MIC90 (Viridans streptococci; read-out: MIC90) of over 8 µg/mL, an MIC50 (Citrobacter koseri) of 8 µg/mL (≈ 10.7 µM) and an MIC90 (Citrobacter koseri) of over 8 µg/mL. The MIC50 (Klebsiella oxytoca) was over 8 µg/mL, the MIC90 (Klebsiella oxytoca) was over 8 µg/mL and the “% S” value (Haemophilus influenzae; [16]) was 100.0%. The “MIC Range” value (Haemophilus influenzae; [16]) was “≦0.004-2 μg/mL”, the “% S” value (Haemophilus influenzae; [17]) was 100.0% and the “MIC Range” value (Haemophilus influenzae; [17]) was “≦0.004-2 μg/mL”. For the same compound, the “% S” value (Haemophilus influenzae; [18]) was 100.0%, the “MIC Range” value (Haemophilus influenzae; [18]) was 0.06 to 1 µg/mL and the MIC50 (Haemophilus influenzae; [16]) was 0.5 µg/mL (≈ 0.668 µM). The MIC90 (Haemophilus influenzae; [16]) was 1 µg/mL (≈ 1.34 µM), the MIC50 (Haemophilus influenzae; [17]) was 0.5 µg/mL (≈ 0.668 µM) and the MIC90 (Haemophilus influenzae; [17]) was 2 µg/mL (≈ 2.67 µM). It also gave an MIC50 (Haemophilus influenzae; [18]) of 0.5 µg/mL (≈ 0.668 µM), an MIC90 (Haemophilus influenzae; [18]) of 1 µg/mL (≈ 1.34 µM) and an MIC50 (Legionella pneumophila; Legionella pneumophila) of 0.12 µg/mL (≈ 0.16 µM). The MIC90 (Legionella pneumophila; Legionella pneumophila) was 1 µg/mL (≈ 1.34 µM), the “MIC Range” value (Legionella pneumophila; Legionella pneumophila (N = 50)) was 0.03 to 1 µg/mL and the “% S” value (Moraxella catarrhalis) was 100.0%. For the same compound, the MIC50 (Moraxella catarrhalis) was 0.03 µg/mL (≈ 0.0401 µM), the MIC90 (Moraxella catarrhalis) was 0.03 µg/mL (≈ 0.0401 µM) and the “MIC Range” value (Moraxella catarrhalis) was 0.015 to 0.06 µg/mL. For the same compound, the MIC50 (Morganella morganii) was over 8 µg/mL, the MIC90 (Morganella morganii) was over 8 µg/mL and the MIC90 (S. aureus; MRSA, S. aureus MRSA-CR, N 17, read-out: MIC90) was over 8 µg/mL. For the same compound, the MIC90 (S. aureus; MRSA, S. aureus MRSA-CS, N 9, read-out: MIC90 (due to limited isolates, highest MIC value is given)) was over 8 µg/mL, the MIC90 (S. aureus; MSSA, S. aureus MSSA-CR, N 17, read-out: MIC90) was over 8 µg/mL and the MIC90 (S. aureus; MSSA, S. aureus MSSA-CS, N 144, read-out: MIC90) was over 8 µg/mL. It also gave an MIC90 (S. epidermidis; MRSE, S. epidermidis MRSE-CR, N 24) of over 8 µg/mL, an MIC90 (S. epidermidis; MRSE, S. epidermidis MRSE-CS, N 27) of over 8 µg/mL and an MIC90 (S. epidermidis; S. epidermidis MSSE-CR, N 10) of over 8 µg/mL. For the same compound, the MIC90 (S. epidermidis; S. epidermidis MSSE-CS, N 50) was over 8 µg/mL.
